Test results taken from PubChem BioAssay AID2060620 (Molecular Pharmacology Branch, DTP, NCI, 2025).
Several values for one entry are separate records, joined by “and”; a condition that tells them apart may be missing. Equal entries are not always repeated.

System: 328373-195-R-J1-PDC complex spheroids, viability % test/control
Test: Anticancer human tumor 328373-195-R-J1-PDC patient-derived head and neck squamous carcinoma cell line growth inhibition [CLK]
Details: for viability, T/C: stronger effect = lower value; for IC50: curve of compound
From the text: A high-throughput screen of multi-cell type tumor spheroids was designed to identify active combinations of […] and targeted small molecules. Complex spheroids include a stromal component modeled by human endothelial cells (HUVEC) and fibroblasts modeled by human mesenchymal stem cells (MSCs). The concentration ranges selected for each drug and investigational agent were based upon clinically achievable concentrations if the clinical Cmax of the agent was known.
Compounds. The drugs and investigational agents: cirtuvivint (SM08502; NSC835563), CC-671 (NSC850746), vemurafenib (NSC761431), tapotoclax (NSC804041), sotorasib (NSC818433), adagrasib (NSC831453), MRTX-1133 (NSC836407), BAY2416964 (NSC825713), copanlisib (NSC816437), inavolisib (NSC800729), abemaciclib (NSC768073), osimertinib (NSC779217), entinostat (NSC756642), eltanexor (KPT-8602, NSC794443), venetoclax (NSC766270), ceralasertib (NSC777638), bortezomib (NSC756655), olaparib (NSC753686), talazoparib (NSC767125), alisertib (NSC759677), peposertib (NSC802822), gemcitabine (NSC613327), 5-fluorouracil (NSC19893), SN-38 (NSC673596), oxaliplatin (NSC266046), paclitaxel (NSC125973), and doxorubicin (NSC123127), were obtained from the National Cancer Institute (NCI) Developmental Therapeutics Program Chemical Repository. The FDA-approved anticancer drug set is available from the Developmental Therapeutics Program at https://dtp.cancer.gov/organization/dscb/obtaining/available plates.htm. […] The stock solutions were prepared in dimethyl sulfoxide (DMSO, Sigma-Aldrich, St. Louis, MO, cat. D2650), except for the platinum complexes which were prepared in saline (Quality Biological, Gaithersburg, MD, cat. 114-055-101), at 800-fold the tested concentration and stored at -70 degrees C prior to their use. All drugs and investigational agents were tested over a range starting from a high concentration at or near the clinical Cmax and decreasing in half-log increments. If the clinical Cmax for an agent had not been determined, the highest concentration tested was 10 microM.
Cell Culture. All cells were maintained in an incubator at 37 degrees C and 5% CO2 with 95% humidity. The PDC lines were cultured according to standard operating procedures established by the NCI PDMR. Briefly, all PDCs were thawed and cultured in Matrigel-coated flasks prepared with a working solution of 1X Ham's F-12 nutrient mix, without supplementation (Invitrogen, Waltham, MA, cat. 11765054), 100 U/mL penicillin-streptomycin (Invitrogen, cat. 15140122), and 2.5% Matrigel (Corning Inc., Corning, NY, cat. 354248) for the first three passages. The 947758-054-R-J2-PDC line was cultured in 6B/Colon 1A media, which includes advanced DMEM/F-12 (Thermo Fisher Scientific, cat. 12634028), 10 mM HEPES (Thermo Fisher Scientific, cat. 15630080), 1X GlutaMAX supplement (Thermo Fisher Scientific, cat. 35050061), 0.1 mg/mL primocin (InvivoGen, cat. ant-pm-2), 10% defined fetal bovine serum, heat inactivated (HyClone Laboratories Inc., cat. SH30070.03HI), 1.25 mM N-Acetyl-L-cysteine (Sigma-Aldrich, cat. A9165), 10 mM nicotinamide (Sigma-Aldrich, cat. N0636), 1X B-27 supplement (Thermo Fisher Scientific, cat. 17504044), 1X N-2 supplement (Thermo Fisher Scientific, cat. 17502048), and 10 microM Y-27632 dihydrochloride (Tocris Bioscience, cat. 1254). The 876862-298-R-J1-PDC was cultured in 6E media, which includes all 6B/Colon 1A media components plus 50% L-WRN conditioned media (ATCC, cat. CRL-3276), 50 ng/mL recombinant human EGF recombinant protein (hEGF; Thermo Fisher Scientific, cat. PHG0311), 10 ng/mL recombinant human fibroblast growth factor 10 (hGFG-10; PeproTech, cat. 100-26), 1 ng/mL recombinant human fibroblast growth factor 2 (hFGF-2; PeproTech, cat. 100-18B), and 1 µM prostaglandin E2 (PGE2; Tocris, cat. 2296). The 227483-062-R1-J1-PDC line was cultured in Panc media, containing all 6E components except hFGF-2, with the addition of 500 nM SB-431542 (Selleckchem, cat. S1067) and 10 nM gastrin (Tocris, cat. 3006). […]
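Also: spheroids exposed to the agents for 7 days.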

Structure (SMILES)	IC50	viability, T/C (compound 0.0316 µM)	viability, T/C (compound 0.1 µM)	viability, T/C (compound 0.316 µM)	viability, T/C (compound 1 µM)	viability, T/C (compound 3.16 µM)	viability, T/C (compound 10 µM)	viability, T/C (compound 0.000949 µM)	viability, T/C (compound 0.003 µM)	viability, T/C (compound 0.00949 µM)	viability, T/C (compound 0.03 µM)	viability, T/C (compound 0.0949 µM)	viability, T/C (compound 0.3 µM)
C#Cc1c(F)ccc2cc(O)cc(-c3ncc4c(N5CC6CCC(C5)N6)nc(OCC56CCCN5CC(F)C6)nc4c3F)c12 (configuration not stated)	> 10 µM	99.7% and 97.3%	85.4% and 93.6%	108% and 98.6%	96.1% and 92.8%	118% and 111%	89.6% and 94.6%						
C=C(F)C(=O)N1CCN(c2nc(OCC3CCCN3C)nc3c2CCN(c2cccc4cccc(Cl)c24)C3)CC1CC#N (configuration not stated)	3.42 µM and 3.75 µM	94.1% and 94.7%	89.7% and 93.1%	77.7% and 114%	90.5% and 84.6%	53.7% and 59.2%	0.17% and 3%						
C=CC(=O)N1CCN(c2nc(=O)n(-c3c(C)ccnc3C(C)C)c3nc(-c4c(O)cccc4F)c(F)cc23)C(C)C1 (configuration not stated)	> 10 µM	84.3% and 93.1%	89.4% and 95.1%	93.2% and 106%	98.8% and 87.5%	96.5% and 100%	77.4% and 74.5%						
CC(CO)NC(=O)c1cc(-c2ccc(Cl)cc2)nn(-c2cnn(C)c2)c1=O (configuration not stated)	> 10 µM	101% and 99.6%	105% and 97%	105% and 113%	112% and 109%	112% and 119%	88.7% and 91.8%						
CC1COCCN1c1cc(C2(S(C)(=N)=O)CC2)nc(-c2ccnc3[nH]ccc23)n1 (configuration not stated)	1.76 µM and 1.73 µM	99.7% and 95.9%	91.5% and 81.3%	88.8% and 91.9%	70.2% and 70%	29.4% and 27.2%	9.11% and 6.62%						
CCCS(=O)(=O)Nc1ccc(F)c(C(=O)c2c[nH]c3ncc(-c4ccc(Cl)cc4)cc23)c1F	> 10 µM	99.5% and 99.4%	91.2% and 92.6%	92.8% and 95.1%	91.2% and 83.6%	92.6% and 94.8%	82.3% and 109%						

More lines, main results first:

IC50	Structure (SMILES)	viability, T/C (compound 0.0316 µM)	viability, T/C (compound 0.1 µM)	viability, T/C (compound 0.316 µM)	viability, T/C (compound 1 µM)	viability, T/C (compound 3.16 µM)	viability, T/C (compound 10 µM)	viability, T/C (compound 0.000949 µM)	viability, T/C (compound 0.003 µM)	viability, T/C (compound 0.00949 µM)	viability, T/C (compound 0.03 µM)	viability, T/C (compound 0.0949 µM)	viability, T/C (compound 0.3 µM)
> 0.3 µM	C=CC(=O)Nc1cc(Nc2nccc(-c3cn(C)c4ccccc34)n2)c(OC)cc1N(C)CCN(C)C							97.9% and 96%	96.8% and 91.2%	94% and 91.6%	94.2% and 92.4%	83.8% and 91.1%	91.3% and 84.8%
< 0.0316 µM	CC(=O)O[C@H]1C(=O)[C@@]2(C)[C@H]([C@H](OC(=O)c3ccccc3)[C@]3(O)C[C@H](OC(=O)[C@H](O)[C@@H](NC(=O)c4ccccc4)c4ccccc4)C(C)=C1C3(C)C)[C@]1(OC(C)=O)CO[C@@H]1C[C@@H]2O	10.2% and 4.45%	5.56% and 4.34%	5.87% and 5.98%	10.8% and 8.33%	14.6% and 9.57%	14.7% and 10.1%						
0.00176 µM and 0.00186 µM	CC(C)CC(NC(=O)C(Cc1ccccc1)NC(=O)c1cnccn1)B(O)O (configuration not stated)							97.8% and 115%	8.65% and 3.9%	1.43% and 0.2%	1.56% and 0.3%	0.16%	0.85% and 0.2%
4.34 µM and 6.46 µM	CC(Nc1ccc2c(c1)OCCn1cc(N3C(=O)OCC3C(F)F)nc1-2)C(N)=O (configuration not stated)	86% and 91.1%	76.5% and 86.9%	77.7% and 75.1%	73.9% and 78.2%	53.4% and 56.5%	40% and 44.6%						
6.04 µM and 4.85 µM	CC1(C)CCC(CN2CCN(c3ccc(C(=O)NS(=O)(=O)c4ccc(NCC5CCOCC5)c([N+](=O)[O-])c4)c(Oc4cnc5[nH]ccc5c4)c3)CC2)=C(c2ccc(Cl)cc2)C1	103% and 85%	88.8% and 76.7%	95.1% and 98.1%	90% and 84%	81.7% and 74.5%	25.7% and 8.47%						
